# Tests used:
# [1] = tested on: benthic aquatic macroinvertebrates; assay: Toximeter locomotor index monitoring of benthic aquatic macroinvertebrates during contamination episodes; assay type: in vivo, Gammarus fossarum, Erpobdella testacea, Radix auricularia; settings: 100 μg·L^−1, contamination episodes of 20-24 h, even after several episodes; FIG. 3
# Procedure: For the purposes of the present invention, “locomotor index” corresponds to an average distance calculated according to the study context (field or laboratory) over the 10% to 80% of the lowest values of individual distances travelled. The locomotor index is the average of these shortest distances. This locomotor index is calculated on an integration time step that can be chosen between 2 and 120 minutes. The values of distances travelled are squared before the index is calculated, so the locomotive index is expressed in mm^2/unit of time.
# In the examples, only benthic aquatic macroinvertebrates calibrated in terms of size, sex, non-parasitized, from a single population and housing for two weeks in the laboratory are shown. The benthic aquatic macroinvertebrates are placed in a cage under camera monitoring where 16 individuals are placed alone in a volume of 50 mL of water.
# The cage is made of neutral materials (polypropylene) and without the use of toxic products (no glue). These cages (FIG. 1) are connected to a pre-bubbled, thermo-regulated and filtered liquid supply and then circulate in the chamber that receives the effluent at a flow rate of 6 L/h. […]
# Daphnia = settings: after 48 h exposure; cited from earlier work
compound,measurement,setting,value
CNC(=O)ON=C(C)SC [methomyl],time to detect a toxicity of the product (locomotor index),[1],≤ 3 h
same,LC50 in Daphnia,Daphnia,0.028 µg/mL

# Reference: patent publication US11609221B2, “Method for detecting the presence of a contaminant in a liquid” (priority 2017, dated 2023)
